Laboratory results from patent US8877733B2, “1′-substituted pyrimidine N-nucleoside analogs for antiviral treatment” (Gilead Sciences, Inc., priority 2011, dated 2014).
Read-outs that look alike come from different tables or passages of the source.

Legend:
HCV Δ21 NS5b polymerase = HCV Δ21 NS5b polymerase (Hepatitis C virus genotype 1b (isolate Con1) (HCV), UniProt Q9WMX2); test: HCV IC50 determination, NS5b polymerase assay; assay type: biochemical; details: wild type or S282T mutant enzyme not specified, nucleoside triphosphates
Protocol: Assay Protocol: Either wild type or S282T (Migliaccio, et al., J. Biol. Chem. 2003, 49164-49170; Klumpp, et al., J. Biol. Chem. 2006, 3793-3799) mutant polymerase enzyme was used in this assay. NS5b polymerase assay (40 μL) was assembled by adding 28 μL polymerase mixture (final concentration: 50 mM Tris-HCl at pH 7.5, 10 mM KCl, 5 mM MgCl2, 1 mM DTT, 10 mM EDTA, 4 ng/μL of RNA template, and 75 nM HCV Δ21 NS5b polymerase) to assay plates followed by 4 μL of compound dilution. The polymerase and compound were pre-incubated at 35° C. for 10 minute before the addition of 8 μL of nucleotide substrate mixture (33P-[…] competing nucleotide at KM and 0.5 mM of the remaining three nucleotides). The assay plates were covered and incubated at 35° C. for 90 min. Reactions were then filtered through 96-well DEAE-81 filter plates via vacuum. The filter plates were then washed under vacuum with multiple volumes of 0.125 M NaHPO4, water, and ethanol to remove unincorporated label. Plates were then counted on TopCount to assess the level of product synthesis over background controls. The IC50 value is determined using Prism fitting program.

RSV strain A2 = test: RSV-induced cytopathic effect in Hep2 cells, 384 well method; assay type: cell-based; details: human respiratory syncytial virus, HEp-2, 120 h
Protocol: Antiviral activity against RSV is determined using an in vitro cytoprotection assay in Hep2 cells. […] The method used is similar to methods previously described in published literature (Chapman et al., Antimicrob Agents Chemother. 2007, 51(9):3346-53.)
Compounds were also tested for antiviral activity against RSV in Hep2 cells using a 384 well format. Compounds were diluted in DMSO using a 10-step serial dilution in 3-fold increments via automation in 4 adjacent replicates each. Eight compounds were tested per dilution plate. 0.4 uL of diluted compounds were then stamped via Biomek into 384-well plates (Nunc 142761 or 164730 w/lid 264616) containing 20 μL of media (Mediatech Inc. MEM supplemented with Glutamine, 10% FBS and Pen/Strep). DMSO and a suitable positive control compound, such as 80 μM GS-329467 or 10 μM 427346 was used for the 100% and 0% cell killing controls, respectively.
Hep2 cells (1.0×10^5 cells/mil) were prepared as above in batch to at least 40 mls excess of the number of sample plates (8 mls cell mix per plate) and infected with vendor supplied (ABI) RSV strain A2 to arrive at an MOI of 1:1000 (virus:cell #) or 1:3000 (vol virus: cell vol). Immediately after addition of virus, the RSV infected Hep2 cell suspension was added to each stamped 384-well plate at 20 μl per well using a uFlow dispenser, giving a final volume of 40 μL/well, each with 2000 infected cells. The plates were then incubated for 5 days at 37° C. and 5% CO2. Following incubation, the plates were equilibrated to room temperature in a biosafety cabinet hood for 1.5 hrs and 40 μL of Cell-Titer Glo viability reagent (Promega) was added to each well via uFlow. Following a10-20 minute incubation, the plates were read using an EnVision or Victor Luminescence plate reader (Perkin-Elmer). The data was then uploaded and analyzed on the Bioinformatics portal under the RSV Cell Infectivity and 8-plate EC50-Hep2-384 or 8-plate EC50-Hep2-Envision protocols.

HCV replicon cells = test: HCV EC50 determination, replicon cells luciferase assay; assay type: cell-based; details: Hepatitis C virus
Protocol: Replicon cells were seeded in 96-well plates at a density of 8×10^3 cells per well in 100 μL of culture medium, excluding Geneticin. Compound was serially diluted in 100% DMSO and then added to the cells at a 1:200 dilution, achieving a final concentration of 0.5% DMSO and a total volume of 200 μL. Plates were incubated at 37° C. for 3 days, after which culture medium was removed and cells were lysed in lysis buffer provided by Promega's luciferase assay system. Following the manufacturer's instruction, 100 μL of luciferase substrate was added to the lysed cells and luciferase activity was measured in a TopCount luminometer.

[1] = tested on: mitochondrial protein levels of Complexes II and IV; test: Mitochondrial Biogenesis Assay after 5-day treatment in PC-3 cells; assay type: cell-based; details: human
Protocol: (§1) Three-fold serial dilutions of compounds were prepared in duplicate in 96-well plates starting at a concentration close to the CC50 value of the compound after 5-day treatment. For compounds with CC50≧100 μM, the starting concentration was 100 μM. PC-3 cells were plated at a density of 2.5×10^3 cells per well in a final assay volume of 100 μL per well with a constant amount of DMSO equal to 0.5%. After 5-day incubation, the cells were analyzed with the MitoSciences MitoBiogenesis™ In-Cell ELISA Kit (catalog #MS642), which uses quantitative immunocytochemistry to measure protein levels of Complexes II and IV in cultured cells. Cells were fixed in a 96-well plate and target proteins were detected with highly-specific, well-characterized monoclonal antibodies. The protein levels were quantified with IRDyee-labeled Secondary Antibodies. IR imaging and quantitation was performed using a LI-COR® Odyssey instrument. All ratios were expressed as a percentage of the 0.5% DMSO control. In cases where cell viability was severely affected, the data for mitochondrial biogenesis was not included for analysis due to significant errors associated with low signals. Chloramphenicol was used as the positive control for the assay.

[2] = tested on: protein levels of Complexes II and IV in PC-3 cells; test: as above; assay type: cell-based; details: PC-3 cells, 5-day treatment; maximum concentration tested 100 μM
Protocol: as §1

[3] = Hep2 cells, RSV A2, 5 days, Cell-Titer Glo, 384 well format, read-out: EC50

Question: `C[C@@]1(O)[C@H](O)[C@@H](COP(=O)(O)OP(=O)(O)OP(=O)(O)O)O[C@@]1(C#N)n1ccc(N)nc1=O` [Compound 28] was tested. Which IC50 (HCV Δ21 NS5b polymerase) did it give?
Answer: Its IC50 is 18 µM.

Question: With `C[C@@H](O)[C@H]1O[C@@](C#N)(n2ccc(=O)[nH]c2=O)[C@@H](O)[C@@H]1O` [Compound 10] as the compound, how does the EC50 (RSV strain A2; [3]) read?
Answer: The EC50 was 200 µM.

Question: `N#C[C@@]1(n2ccc(N)nc2=O)O[C@H](CO)[C@@H](O)[C@H]1O` [Compound 4] was tested. Which EC50 (RSV strain A2; [3]) did it give?
Answer: The EC50 was 11.3 µM.

Question: How did the EC50 (RSV strain A2; [3]) turn out when `CO[C@@H]1[C@H](O)[C@@H](CO)O[C@@]1(C#N)n1ccc(=O)[nH]c1=O` [Compound 12] was run?
Answer: The EC50 was 200 µM.

Question: For `C[C@@]1(O)[C@H](O)[C@@H](COP(=O)(O)OP(=O)(O)OP(=O)(O)O)O[C@@]1(C#N)n1ccc(=O)[nH]c1=O` [Compound 27], which IC50 (HCV Δ21 NS5b polymerase) is on record?
Answer: Its IC50 is 27 µM.

Question: How did the EC50 (HCV replicon cells; 72 h) turn out when `CC(C)OC(=O)[C@H](C)NP(=O)(OC[C@H]1O[C@@](C#N)(n2ccc(=O)[nH]c2=O)[C@](C)(O)[C@@H]1O)Oc1ccccc1` (stereo partly drawn) [Compound 29] was run?
Answer: Its EC50 is 8.2 µM.

Question: `C[C@@]1(O)[C@H](O)[C@@H](CO)O[C@H]1n1ccc(N)nc1=O` [Compound A, reference compound] was tested. Which EC50 (HCV replicon cells; HCV replicon, read-out: EC50 (antiviral activity)) did it give?
Answer: The EC50 was 2.5 µM.

Question: What about the EC50 (HCV replicon cells; replicon, comparison table R6=H vs R6=CN, read-out: HCV EC50) of the same compound?
Answer: The EC50 was 2.5 µM.

Question: And the CC50 at 5 days [1]?
Answer: Its CC50 at 5 days is 43 µM.

Question: For `C[C@@H](O)[C@H]1O[C@@](C#N)(n2ccc(N)nc2=O)[C@@H](O)[C@@H]1O` [Compound 11], which EC50 (RSV strain A2; [3]) is on record?
Answer: Its EC50 is 200 µM.

Question: With `CC(C)OC(=O)[C@H](C)N[P@](=O)(OC[C@H]1O[C@@](C#N)(n2ccc(N)nc2=O)[C@](C)(O)[C@@H]1OC(=O)C(C)C)Oc1ccccc1` [Compound 35] as the compound, how does the EC50 (RSV strain A2) read?
Answer: The EC50 was 200 µM.

Question: Which EC50 (HCV replicon cells; 72 h) does the source give for `CC(C)OC(=O)[C@H](C)N[P@](=O)(OC[C@H]1O[C@@](C#N)(n2ccc(N)nc2=O)[C@](C)(O)[C@@H]1O)Oc1ccccc1` [Compound 30] here?
Answer: The EC50 was 2.6 µM.

Question: What about the EC50 (HCV replicon cells; read-out: EC50 (antiviral activity)) of the same compound?
Answer: The EC50 was 2.6 µM.

Question: And the EC50 (HCV replicon cells; read-out: HCV EC50)?
Answer: Its EC50 is 2.6 µM.

Question: And the CC50 at 5 days ([1]; mitochondrial toxicity, PC-3 cells, 5-day treatment, maximum concentration tested 100 μM, read-out: CC50)?
Answer: Its CC50 at 5 days is > 100 µM.

Question: And the “50% inhibition of mitochondrial protein levels” value [2]?
Answer: The value was > 100 µM.

Question: And the EC50 (RSV strain A2)?
Answer: Its EC50 is 200 µM.

Question: For `CO[C@@H]1[C@H](O)[C@@H](CO)O[C@@]1(C#N)n1ccc(N)nc1=O` [Compound 13], which EC50 (RSV strain A2; [3]) is on record?
Answer: The EC50 was 200 µM.

Question: With `O=C(N[C@H](CO)[C@H](O)c1ccc([N+](=O)[O-])cc1)C(Cl)Cl` [Chloramphenicol, reference compound] as the compound, how does the CC50 at 5 days [1] read?
Answer: Its CC50 at 5 days is 2.5 µM.

Question: For `N#C[C@@]1(n2ccc(=O)[nH]c2=O)O[C@H](CO)[C@@H](O)[C@H]1O` [Compound 3], which EC50 (RSV strain A2; [3]) is on record?
Answer: Its EC50 is 10.9 µM.

Question: With `C[C@H]1[C@H](O)[C@@H](CO)O[C@@]1(C#N)n1ccc(=O)[nH]c1=O` [Compound 15] as the compound, how does the EC50 (RSV strain A2; [3]) read?
Answer: The EC50 was 200 µM.
